Assay [1] relates to FGF-induced BrdU incorporation. Nature of the assay: FGF-induced BrdU incorporation assay. The assay is classed as cell-based. The settings on record: read-out: FGF-Induced BrdU Incorp. IC50. Here is the method: (§1) PDGF-, FGF-, and EGF-Induced BRDU Incorporation Assay
(§2) 1. Cells were seeded at 8000 cells/well in DMEM, 10% CS, 2 mM Gln in a 96 well plate. Cells were incubated overnight at 37° C. in 5% CO2.
(§3) 2. After 24 hours, the cells were washed with PBS, and then were serum starved in serum free medium (0% CS DMEM with 0.1% BSA) for 24 hours.
(§4) 3. On day 3, ligand (PDGF=3.8 nM, prepared in DMEM with 0.1% BSA) and test compounds were added to the cells simultaneously. The negative control wells received serum free DMEM with 0.1% BSA only; the positive control cells received the ligand (PDGF) but no test compound. Test compounds were prepared in serum free DMEM with ligand in a 96 well plate, and serially diluted for 7 test concentrations.
(§5) 4. After 20 hours of ligand activation, diluted BrdU labeling reagent (1:100 in DMEM, 0.1% BSA) was added and the cells were incubated with BrdU (final concentration=10 μM) for 1.5 hours.
(§6) 5. After incubation with labeling reagent, the medium was removed by decanting and tapping the inverted plate on a paper towel. FixDenat solution was added (50 μL/well) and the plates were incubated at room temperature for 45 minutes on a plate shaker.
(§7) 6. The FixDenat solution was thoroughly removed by decanting and tapping the inverted plate on a paper towel. Milk was added (5% dehydrated milk in PBS, 200 μL/well) as a blocking solution and the plate was incubated for 30 minutes at room temperature on a plate shaker.
(§8) 7. The blocking solution was removed by decanting and the wells were washed once with PBS. Anti-BrdU-POD solution (1:100 dilution in PBS, 1% BSA) was added (100 μL/well), and the plate was incubated for 90 minutes at room temperature on a plate shaker.
(§9) 8. The antibody conjugate was thoroughly removed by decanting and rinsing the wells 5 times with PBS, and the space was dried by inverting and tapping on a paper towel.
(§10) 9. TMB substrate solution was added (100 μL/well) and incubated for 20 minutes at room temperature on a plate shaker until color development was sufficient for photometric detection.
(§11) 10. The absorbance of the samples were measured at 410 nm (in “dual wavelength” mode with a filter reading at 490 nm, as a reference wavelength) on a Dynatech ELISA plate reader.
(§12) The IC50 values were measured for several of the compounds of the invention. These values are depicted in Table 10.

Assay [2] concerns EGF-induced BrdU incorporation. Nature of the assay: EGF-induced BrdU incorporation assay. Format: cell-based. The settings on record: read-out: EGF-Induced BrdU Incorp. IC50. As to the method:
as §1, §2, §3, §4, §5, §6, §7, §8, §9, §10, §11, §12

Another assay concerns HUV-EC-C cells; VEGF. Nature of the assay: HUVEC-VEGF 3H-thymidine incorporation assay. Format: cell-based, human. As to conditions: Homo sapiens. As to the method: The following protocol is used to measure a compound's activity against VEGF and aFGF, all of which are expressed by HUVEC cells.
1. […] After cells have detached from the flask, add an equal volume of assay medium and transfer to a 50 mL sterile centrifuge tube (Fisher Scientific; catalogue no. 05-539-6).
2. Wash the cells with about 35 mL assay medium in the 50 mL sterile centrifuge tube by adding the assay medium, centrifuge for 10 minutes at approximately 200×g, aspirate the supernatant, and resuspend with 35 mL D-PBS. Repeat the wash two more times with D-PBS, resuspend the cells in about 1 mL assay medium/15 cm^2 of tissue culture flask. Assay medium consists of F12K medium (Gibco BRL; catalogue no. 21127-014)+0.5% heat-inactivated fetal bovine serum. Count the cells with a Coulter Counter® (Coulter Electronics, Inc.) and add assay medium to the cells to obtain a concentration of 0.8-1.0×10^5 cells/mL.
3. Add cells to 96-well flat-bottom plates at 100 μL/well or 0.8-1.0×10^4 cells/well; incubate ˜24h at 37° C., 5% CO^2.
1. Make up two-fold drug titrations in separate 96-well plates, generally 50 μM on down to 0 μM. Use the same assay medium as mentioned in day 0, step 2 above. Titrations are made by adding […] of drug at 200 μM (4× the final well concentration) to the top well of a particular plate column. Since the stock drug concentration is usually 20 mM in DMSO, the 200 μM drug concentration contains 2% DMSO.
Therefore, diluent made up to 2% DMSO in assay medium (F12K+0.5% fetal bovine serum) is used as diluent for the drug titrations in order to dilute the drug but keep the DMSO concentration constant. Add this diluent to the remaining wells in the column at 60 μL/well. Take 60 μL from the 120 μL of 200 μM drug dilution in the top well of the column and mix with the 60 μL in the second well of the column. Take 60 μL from this well and mix with the 60 μL in the third well of the column, and so on until two-fold titrations are completed. When the next-to-the-last well is mixed, take 60 μL of the 120 μL in this well and discard it. Leave the last well with 60 μL of DMSO/media diluent as a non-drug-containing control. Make 9 columns of titrated drug, enough for triplicate wells each for 1) VEGF (obtained from Pepro Tech Inc., catalogue no. 100-200, 2) endothelial cell growth factor (ECGF) (also known as acidic fibroblast growth factor, or aFGF) (obtained from Boehringer Mannheim Biochemica, catalogue no. 1439 600); or, 3) human PDGF B/B (1276-956, Boehringer Mannheim, Germany) and assay media control. ECGF comes as a preparation with sodium heparin.
2. Transfer 50 μL/well of the drug dilutions to the 96-well assay plates containing the 0.8-1.0×10^4 cells/100 μL/well of the HUV-EC-C cells from day 0. and incubate ˜2 h at 37° C., 5% CO2.
3. […] As with the drugs, the growth factor concentrations are 4× the desired final concentration. Use the assay media from day 0 step 2 to make the concentrations of growth factors. Incubate approximately 24 hours at 37° C., 5% CO2. Each well will have 50 μL drug dilution, 50 μL growth factor or media, and 100 μL cells, =200 μL/well total. Thus the 4× concentrations of drugs and growth factors become 1× once everything has been added to the wells.
1. Add ^3H-thymidine (Amersham; catalogue no. TRK-686) at 1 μCi/well (10 μL/well Of 100 μCi/mi solution made up in RPMI media +10% heat-inactivated fetal bovine serum) and incubate μ24 h at 37° C., 5% CO2. RPMI was obtained from Gibco BRL, catalogue no. 11875-051.
1. Freeze plates overnight at […]
1. Thaw plates and harvest with a 96-well plate harvester (Tomtec Harvester 96®) onto filter mats (Wallac; catalogue no. 1205-401); read counts on a Wallac Betaplate™ liquid scintillation counter.
The IC50 values were measured for several of the compounds of the invention.

In assay [3] the test system is 3T3 cell line genetically engineered to express human PDGF-R. Nature of the assay: PDGF-induced BrdU incorporation assay. The assay is classed as cell-based. As to conditions: NIH3T3; 3T3 cells expressing human PDGF-R, PDGF 3.8 nM; read-out: PDGF-Induced BrdU Incorp. IC50. As to the method: (1) PDGF: human PDGF B/B; 1276-956, Boehringer Mannheim, Germany
(8) 3T3 cell line genetically engineered to express human PDGF-R.
as §2, §3, §4, §5, §6, §7, §8, §9, §10, §11, §12

Where two headings read alike, the source gives them in different places.

On to `COc1ccc2c(c1)NC(=O)C2=Cc1[nH]cc(C)c1CCC(=O)O` [IN-028, 3-[2-(6-Methoxy-2-oxo-1,2-dihydro-indol-3-ylidenemethyl)-4-methyl-1H-pyrrol-3-yl]-propionic acid], for which the IC50 in assay [1] was above 50 µM; in assay [2], above 50 µM; with HUV-EC-C cells; VEGF, 0.62 µM; in assay [3] it was 8.7 µM.
On to `Cc1c[nH]c(C=C2C(=O)Nc3cccc(C)c32)c1CCC(=O)O` [IN-029, 3-[2-(4-Methyl-2-oxo-1,2-dihydro-indol-3-ylidenemethyl)-4-methyl-1H-pyrrol-3-yl]-propionic acid], for which the IC50 in assay [1] is above 50 µM; in assay [2] (EGF-induced), 43.5 µM; in the assay with HUV-EC-C cells; VEGF it was below 0.07 µM; in assay [3], 24.8 µM.
On to `Cc1c[nH]c(C=C2C(=O)Nc3cc(Cl)ccc32)c1CCC(=O)O` [IN-030, 3-[2-(6-Chloro-2-oxo-1,2-dihydro-indol-3-ylidenemethyl)-4-methyl-1H-pyrrol-3-yl]-propionic acid], for which the IC50 in assay [1] is above 50 µM; in assay [2], above 50 µM; with HUV-EC-C cells; VEGF, 0.016 µM; in assay [3] it was 7.9 µM.
Regarding `Cc1c[nH]c(C=C2C(=O)Nc3ccc(Br)cc32)c1CCC(=O)O` [IN-031, 3-[2-(5-Bromo-2-oxo-1,2-dihydro-indol-3-ylidenemethyl)-4-methyl-1H-pyrrol-3-yl]-propionic acid], the IC50 was above 50 µM in assay [1], above 50 µM in assay [2], 0.04 µM in the assay on HUV-EC-C cells; VEGF and 8.5 µM in assay [3].

Values taken from patent publication US20040067531A1, “Methods of modulating protein tyrosine kinase function with substituted indolinone compounds” (SUGEN, INC., priority 1997, published 2004).
